# According to US6635434B1, “Immunoassay for pesticides and their degradation products” (Exiqon A/S, priority 1999, dated 2003):
# Where “and” joins values, the source holds several entries; their conditions need not be identical. Equal entries are not always repeated. Entries after “also recorded” stand apart in the source; their conditions may differ.
# Legend:
# antibody (HYB 273-1) [1] = experiment: Competitive ELISA for BAM on plates covalently (photocoupled) coated with BAM-OA-AQ; format: binding, mice; settings: for cross-reactivity (IC50 of BAM divided by IC50 of analyte, times 100): analytes assayed up to 100 mg/L, antibody HYB 273-1
# Method: A PolySorp™ microtitre plate was filled by a stationary dispensor with 200 μL/well BAM-OA-AQ (50 ng/mL) in 0.1×PBS. After being exposed to uv-light (300-400 nm) at 34° C. for 30 min, the plate was washed 4 times with de-ionised water and dried 30 min at 37° C. The plate was either used immediately or sealed with tape lid and stored at room temperature in the dark until use.
# (§1) Standards (in Milli-Q® water) and samples (150 μL) were added to the hapten-coated plate followed by the addition of 50 μL antibody (HYB 273-1) diluted in 10×PBST (66.7 ng/mL). The plate was incubated for 1 hour. After washing 4 times with PBST, the plate was incubated with 200 μL/well RαM^HRP diluted 1:1000 in PBST. After a final 6 times wash with PBST, 200 μL/well TMB-Plus was added. The colour development was stopped after 10 minutes by adding 50 μL/well 1 M H2SO4 and the absorbance was read at 450 nm.
# (§2) The standards were used to generate a semi-log graph based on the 4-parameter-logistic method (Rodbard, 1974: equation 1), followed by calculation of sample values. [formula]
# (§3) To compare the performances of the two ELISA methods with antigen coated by passive adsorption to that by covalent immobilisation respectively, standard curves were generated with BAM standards ranging from 0.0156 to 2 μg/L on each surface using the identical assay procedures. The data were normalised by the % B/B0 transformation (eq 2). The normalised data were then plotted vs. BAM concentration and the four-parameter-logistic equation (eq 1) was fitted to the experimental points (FIG. 3).
# As to detection limits (defined as the analyte concentration giving a 15% decrease in maximum signal: DL15) and sensitivity (defined as the analyte concentration giving a 50% decrease in maximum signal: IC50) the two surface performs almost equally. […] Further development of the BAM assay was therefore based on this technology and the following results are generated on PolySorp™ microtire plates covalently coated with BAM-OA-AQ as described herein in the Preparation of plates section
# antibody (HYB 273-1) [2] = experiment: Competitive ELISA for BAM on plates coated with BAM-OA by passive adsorption; format: binding, mice; settings: FIG. 3B
# Method: i) Passive adsorption: A MaxiSorp™ microtitre plate was filled by a stationary dispensor with 200 μL/well BAM-OA (16.7 ng/mL) in coating buffer. After coating over night at 4° C. the plate was washed 4 times with de-ionised water and dried 30 min at 37° C. The plate was either used immediately or sealed with tape lid and stored at room temperature in the dark until use.
# as §1, §2
# as §3, with “The normalised data were then plotted vs. BAM concentration and the four-parameter-logistic equation (eq 1) was fitted to the experimental points (FIG. 3).” left out
# [3] = Immunisation of mice with hapten-polymer carrier complex, raising of monoclonal antibodies; format: in vivo; settings: hapten coupled to polymer carrier (ovalbumin)
# Method: Live mice were primed for immunisation by an intraperitoneal injection of live BCG-vaccine one month before immunisation. The antigen (hapten-OA complex), once adsorbed onto Al(OH)3, was injected intraperitonally and test bleeding were collected. When antibody titre's exceeded 1:2000, mice were considered ready for fusion and the method described by Köhler and Milstein (1975) was employed with minor modifications. Monoclonal antibodies were selected on basis of titre, affinity and specificity. Selected clones were recloned until monoclonality and stored frozen at −80° C.
# Ten to twelve weeks old female Balb/cxCF1 F1-hybrid mice were used for immunisation. One month before immunisation they were primed with 0.2 mL live BCG-vaccine intraperitonally. The antigen (25×carrier/immunogen) was absorbed onto Al(OH)3 as an adjuvant. The total volume of vaccine per immunisation was 200 μL, containing 25× of antigen and […] of adjuvant. The antigen was injected intraperitonally with 2-weeks intervals. Test bleedings were collected 10 days after immunisation and assayed in ELISA.
# When antibody titre's exceeded 1:2000, mice were regarded ready for fusion. The procedure as described by Köhler and Milstein (1975) was employed with minor modifications. Monoclonal antibodies were selected on basis of titre, affinity and specificity. […]
Compound,"cross-reactivity (IC50 of BAM divided by IC50 of analyte, times 100) (antibody (HYB 273-1) [1])",immunoresponse on immunisation with the hapten [3],also measured
"NC(=O)c1ccc(Cl)cc1Cl [2,4-dichlorobenzamide]",3.8%,–,–
"NC(=O)c1c(Cl)cccc1Cl [BAM, 2,6-dichlorobenzamide]",–,–,"DL15 (detection limit, analyte concentration giving a 15% decrease in maximum signal) (antibody (HYB 273-1) [2]; passive adsorption): 0.045 µg/L; IC50 (analyte concentration giving a 50% decrease in maximum signal) (antibody (HYB 273-1) [2]; passively adsorbed plates (MaxiSorp)): 0.144 ng/mL and 0.14 ng/mL; IC50 (analyte concentration giving a 50% decrease in maximum signal) (antibody (HYB 273-1) [1]; covalently immobilised plates (PolySorp, photocoupled), FIG. 3A): 0.189 ng/mL and 0.19 ng/mL; DL15 (detection limit, analyte concentration giving a 15% decrease in maximum signal) (antibody (HYB 273-1) [1]; photo catalysed covalent immobilisation, FIG. 3A): 0.02 µg/L"
"O=C(CCCCCNC(=O)c1c(Cl)cccc1Cl)ON1C(=O)CCC1=O [EQ-0025, succinimidyl-N-(2,6-dichlorobenzoyl)-6-amino-hexanoate]",–,able to induce strong immunoresponse,–
"N#Cc1c(Cl)cccc1Cl [dichlorbenil, dichlorobenzonitrile]",no measurable cross-reactivity,–,–
"N-(5-carboxypentyl)-2,4-dichloro-3-amido aniline [EQ-0031]",–,good responses were generated; also recorded: generated good immunoresponse,–
